Measurements as given in patent publication US20070128217A1 (priority 2003, published 2007).

Tests used:
[1] = test system: antibodies in sera from SARS patients (sera 1a, 1b, 2, 6, 37, 62, London, SARS-yellow, SARS-green); format: binding, human; parameters: Binding of serum 6 to linear peptides of protein X1 of SARS-CoV Urbani / Binding of serum 37 to linear peptides of protein X1 of SARS-CoV Urbani / Binding of serum 6 to looped/cyclic peptide (PEPSCAN-ELISA) / Binding of serum 37 to looped/cyclic peptide (PEPSCAN-ELISA) / Binding of serum 37 to looped/cyclic peptides of protein X1 of SARS-CoV Urbani / Binding of serum 6 to linear peptides of protein X2 / Binding of serum 37 to linear peptides of protein X2 / Binding of serum 37 to looped/cyclic peptides of protein X2 of SARS-CoV Urbani / Binding of serum 6 to linear peptides of protein M of SARS-CoV Urbani / Binding of serum 37 to linear peptides of protein M of SARS-CoV Urbani / Binding of serum 6 to looped/cyclic peptides of protein M of SARS-CoV Urbani / Binding of serum 37 to looped/cyclic peptides of protein M of SARS-CoV Urbani / Binding of serum 6 to linear peptides of protein X3 of SARS-CoV Urbani / Binding of serum 37 to linear peptides of protein X3 of SARS-CoV Urbani / Binding of serum 37 to looped/cyclic peptides of protein X3 of SARS-CoV Urbani / Binding of serum 6 to linear peptides of protein X4 of SARS-CoV Urbani / Binding of serum 37 to linear peptides of protein X4 of SARS-CoV Urbani / Binding of serum 37 to looped/cyclic peptides of protein X4 of SARS-CoV Urbani / Binding of serum 6 to linear peptides of protein X5 of SARS-CoV Urbani / Binding of serum 37 to linear peptides of protein X5 of SARS-CoV Urbani / Binding of serum 37 to looped/cyclic peptides of protein X5 of SARS-CoV Urbani / Binding of serum 6 to linear peptides of protein N of SARS-CoV Urbani / Binding of serum 37 to linear peptides of protein N of SARS-CoV Urbani / Binding of serum 6 to linear peptide (PEPSCAN-ELISA) / Binding of serum 1a to looped/cyclic peptides of protein N of SARS-CoV Urbani / Binding of serum 1b to looped/cyclic peptides of protein N of SARS-CoV Urbani / Binding of serum 2 to looped/cyclic peptides of protein N of SARS-CoV Urbani / Binding of serum 6 to looped/cyclic peptides of protein N of SARS-CoV Urbani / Binding of serum 37 to looped/cyclic peptides of protein N of SARS-CoV Urbani / Binding of serum 62 to looped/cyclic peptides of protein N of SARS-CoV Urbani / Binding of serum London to looped/cyclic peptides of protein N of SARS-CoV Urbani / Binding of serum SARS-green to looped/cyclic peptides of protein N of SARS-CoV Urbani: unit not given here
[2] = test system: control sera (pooled serum of ten healthy LUMC hospital workers; commercial negative donor pooled serum from the Dutch bloodbank); format: binding, human; parameters: Binding of Control serum LUMC to linear peptides / Binding of Control serum Blood-bank to linear peptides / Binding of Control serum LUMC to looped peptides / Binding of Control Serum Blood-Bank to Looped peptides / Binding of Control serum LUMC to linear peptides of the protein M of SARS-CoV Urbani / Binding of Control serum Blood-bank to linear peptides of the protein M of SARS-CoV Urbani / Binding of Control serum LUMC to looped peptides of the protein M of SARS-CoV Urbani / Binding of Control Serum Blood-Bank to Looped peptides of the protein M of SARS-CoV Urbani: unit not given here
[3] = test system: rabbit serum obtained by immunizing a rabbit with the SARS-CoV strain Frankfurt 1; format: binding; parameters: Binding of a rabbit serum to linear peptides / Binding of a rabbit serum to looped peptides / Rabbit serum linear peptides / Rabbit serum looped peptides / Binding of a rabbit serum to linear peptides of protein N of SARS-CoV Urbani (Rabbit serum linear peptides) / Binding of a rabbit serum to looped/cyclic peptides of protein N of SARS-CoV Urbani (Rabbit serum looped peptides): unit not given here

LQASLPFGWLVIGVA
Binding of serum 1a to linear peptides of protein X1 of SARS-CoV Urbani [1]: 0.7 | Binding of serum 1a to looped/cyclic peptide (PEPSCAN-ELISA) [1]: 0.4 | Binding of serum 1b to linear peptides of protein X1 of SARS-CoV Urbani [1]: 0.6 | Binding of serum 1b to looped/cyclic peptide (PEPSCAN-ELISA) [1]: 0.3 | Binding of serum 2 to linear peptides of protein X1 of SARS-CoV Urbani [1]: 0.6 | Binding of serum 2 to looped/cyclic peptide (PEPSCAN-ELISA) [1]: 0.3 | Binding of serum 6 to linear peptides of protein X1 of SARS-CoV Urbani [1]: 0.4 | Binding of serum 6 to looped/cyclic peptide (PEPSCAN-ELISA) [1]: 0.3 | Binding of serum 37 to linear peptides of protein X1 of SARS-CoV Urbani [1]: 0.7 | Binding of serum 37 to looped/cyclic peptide (PEPSCAN-ELISA) [1]: 0.4 | Binding of serum 62 to linear peptides of protein X1 of SARS-CoV Urbani [1]: 0.7 | Binding of serum 62 to looped/cyclic peptide (PEPSCAN-ELISA) [1]: 0.5 | Binding of serum London to linear peptides of protein X1 of SARS-CoV Urbani [1]: 0.2 | Binding of serum London to looped/cyclic peptide (PEPSCAN-ELISA) [1]: 0.2 | Binding of serum SARS-green to linear peptides of protein X1 of SARS-CoV Urbani [1]: 0.3 | Binding of serum SARS-green to looped/cyclic peptide (PEPSCAN-ELISA) [1]: 0.2 | Binding of serum SARS-yellow to linear peptides of protein X1 of SARS-CoV Urbani [1]: 0.6 | Binding of serum SARS-yellow to looped/cyclic peptide (PEPSCAN-ELISA) [1]: 0.4 | Binding of Control Serum Blood-Bank to Looped peptides [2]: 0.6 | Binding of Control serum Blood-bank to linear peptides [2]: 0.8 | Binding of Control serum LUMC to linear peptides [2]: 0.5 | Binding of Control serum LUMC to looped peptides [2]: 0.5 | Binding of a rabbit serum to linear peptides [3]: 0.5 | Binding of a rabbit serum to looped peptides [3]: 0.4

LQCINACRIIMRCWL
Binding of serum 1a to linear peptides of protein X1 of SARS-CoV Urbani [1]: 0.7 | Binding of serum 1a to looped/cyclic peptide (PEPSCAN-ELISA) [1]: 0.5 | Binding of serum 1b to linear peptides of protein X1 of SARS-CoV Urbani [1]: 0.5 | Binding of serum 1b to looped/cyclic peptide (PEPSCAN-ELISA) [1]: 0.3 | Binding of serum 2 to linear peptides of protein X1 of SARS-CoV Urbani [1]: 0.5 | Binding of serum 2 to looped/cyclic peptide (PEPSCAN-ELISA) [1]: 0.6 | Binding of serum 6 to linear peptides of protein X1 of SARS-CoV Urbani [1]: 0.6 | Binding of serum 6 to looped/cyclic peptide (PEPSCAN-ELISA) [1]: 1.4 | Binding of serum 37 to linear peptides of protein X1 of SARS-CoV Urbani [1]: 0.7 | Binding of serum 37 to looped/cyclic peptide (PEPSCAN-ELISA) [1]: 0.6 | Binding of serum 62 to linear peptides of protein X1 of SARS-CoV Urbani [1]: 0.6 | Binding of serum 62 to looped/cyclic peptide (PEPSCAN-ELISA) [1]: 0.9 | Binding of serum London to linear peptides of protein X1 of SARS-CoV Urbani [1]: 0.3 | Binding of serum London to looped/cyclic peptide (PEPSCAN-ELISA) [1]: 1.7 | Binding of serum SARS-green to linear peptides of protein X1 of SARS-CoV Urbani [1]: 0.1 | Binding of serum SARS-green to looped/cyclic peptide (PEPSCAN-ELISA) [1]: 0.2 | Binding of serum SARS-yellow to linear peptides of protein X1 of SARS-CoV Urbani [1]: 0.3 | Binding of serum SARS-yellow to looped/cyclic peptide (PEPSCAN-ELISA) [1]: 0.4 | Binding of Control Serum Blood-Bank to Looped peptides [2]: 0.7 | Binding of Control serum Blood-bank to linear peptides [2]: 0.9 | Binding of Control serum LUMC to linear peptides [2]: 0.7 | Binding of Control serum LUMC to looped peptides [2]: 0.6 | Recognition of the peptide by the rabbit serum [3]: recognized

LQFAYSNRNRFLYII
Binding of serum 1a to linear peptides of protein M of SARS-CoV Urbani [1]: 0.7 | Binding of serum 1a to looped/cyclic peptides of protein M of SARS-CoV Urbani [1]: 0.7 | Binding of serum 1b to linear peptides of protein M of SARS-CoV Urbani [1]: 0.5 | Binding of serum 1b to looped/cyclic peptides of protein M of SARS-CoV Urbani [1]: 0.5 | Binding of serum 2 to linear peptides of protein M of SARS-CoV Urbani [1]: 0.6 | Binding of serum 2 to looped/cyclic peptides of protein M of SARS-CoV Urbani [1]: 0.5 | Binding of serum 6 to linear peptides of protein M of SARS-CoV Urbani [1]: 0.3 | Binding of serum 6 to looped/cyclic peptides of protein M of SARS-CoV Urbani [1]: 0.7 | Binding of serum 37 to linear peptides of protein M of SARS-CoV Urbani [1]: 0.7 | Binding of serum 37 to looped/cyclic peptides of protein M of SARS-CoV Urbani [1]: 0.6 | Binding of serum 62 to linear peptides of protein M of SARS-CoV Urbani [1]: 0.7 | Binding of serum 62 to looped/cyclic peptides of protein M of SARS-CoV Urbani [1]: 0.6 | Binding of serum London to linear peptides of protein M of SARS-CoV Urbani [1]: 0.2 | Binding of serum London to looped/cyclic peptides of protein M of SARS-CoV Urbani [1]: 0.2 | Binding of serum SARS-green to linear peptides of protein M of SARS-CoV Urbani [1]: 0.2 | Binding of serum SARS-green to looped/cyclic peptides of protein M of SARS-CoV Urbani [1]: 0.4 | Binding of serum SARS-yellow to linear peptides of protein M of SARS-CoV Urbani [1]: 0.0 | Binding of serum SARS-yellow to looped/cyclic peptides of protein M of SARS-CoV Urbani [1]: 0.5 | Binding of Control Serum Blood-Bank to Looped peptides of the protein M of SARS-CoV Urbani [2]: 0.6 | Binding of Control serum Blood-bank to linear peptides of the protein M of SARS-CoV Urbani [2]: 0.6 | Binding of Control serum LUMC to linear peptides of the protein M of SARS-CoV Urbani [2]: 0.4 | Binding of Control serum LUMC to looped peptides of the protein M of SARS-CoV Urbani [2]: 0.6 | Rabbit serum linear peptides [3]: 0.6 | Rabbit serum looped peptides [3]: 0.4
